Reference: patent publication US20060134063A1, “Agents for proliferating pancreatic beta-cells of the islets of langerhans, agents for suppressing apoptosis of said cells, and screening of candidate compounds for these agents” (priority 2000, published 2006)

Columns and labels:
[1] = system: 5' upstream region of rat HGF gene; assay: HGF promoter/luciferase reporter assay in RINm5F cells; assay type: cell-based; settings: -1336 to +85 construct; 10 mM nicotinamide; 24 h
Procedure: The 5′ upstream region (−1336 to +85) of rat HGF gene was inserted into the multicloning site of pGL3-Basic (Promega) to prepare a luciferase reporter gene construct. Rat insulinoma RINm5F cells were seeded at 1×10^5 cells/well in a 24-well plate, incubated for 2 days, then, transfected with the test luciferase reporter construct using DMRIE-C™ (Life Technologies, Inc.) as described in Akiyama, T. et al. (2001) Proc. Natl. Acad. Sci. USA 98, 48-53. […] Then, the cells were harvested in 1 ml of ice-cold phosphate-buffered saline (PBS), washed twice with PBS, and cell extracts were prepared in extraction buffer (0.1 M potassium phosphate, pH 6.8, 1 mM DTT). The protein concentration was determined using a Coomassie reagent kit (Pierce) and bovine serum albumin as a standard. Luciferase activity was determined using a chemiluminescence substrate and a Pica Gene™ Luminescence Kit (Toyo Ink Mfg. Co, Ltd., Tokyo, Japan). β-Galactosidase activity was measured using an Aurora™ GAL-XE (ICN).
Various lengths of 5′ upstream regions HGF gene (Okajima, A., Miyazawa, K. and Kitamura, N. (1993) Eur. J. Biochem. 213, 113-119 (GenBank Ac. No. D14341)) were inserted into the multicloning site of pGL3-Basic (Promega) to prepare luciferase reporter gene constructs (FIG. 10). […] The protein concentration was determined using a Coomassie reagent kit (Pierce) and bovine serum albumin as a standard. […]

HGF gene = assay: RT-PCR of HGF gene expression in RINm5F cells; assay type: cell-based, rat; settings: 10 mM nicotinamide; 24 h
Procedure: Rat insulinoma RINm5F cells were seeded at 1.5×10^5 cells/ml in a 25-cm^2 culture bottle. […] After a further 24-h incubation, total RNA was prepared using cesium trifluoroacetate as described in […]. et al. (1993) J. Biol. Chem. 268, 26052-26054 and Akiyama, T. et al. (2001) Proc. Natl. Acad. Sci. USA 98, 48-53. RT-PCR was performed using this RNA as a template and primers corresponding to nucleotides 1,556-1,575 and 2,208-2,227 of rat HGF mRNA (Okajima, A. et al. (1990) Eur. J. Biochem. 193, 375-381) as described in Sun, W. et al. (1999) Brain Res. 851, 46-53, to detect the expression of HGF gene. PCR was carried out by a two-step protocol as described in Sun, W. et al. (1999) Brain Res. 851, 46-53, with 33 cycles of the first step [denaturation (95° C., 40 s), primer annealing (60° C., 40 s), and primer elongation (72° C., 1 min)] followed by the 5 cycles of the second step [denaturation ([…], 40 s), primer annealing (60° C., 40 s), and primer elongation (72° C., 1 min)].

[2] = system: 5'-flanking region of the rat Reg gene; assay: Reg promoter/luciferase reporter assay in RINm5F cells; assay type: cell-based
Procedure: A 2,303-bp fragment containing the 5′-flanking region of Reg gene was fused to the luciferase gene and transfected into RINm5F β-cells.
Specifically, luciferase reporter gene constructs were generated as described in Miyashita, H. et al. (1994) Biochim. Biophys. Acta, 1219, 241-243. RINm5F cells were seeded at 1×10^5 cells/well in 24-well dish. After 48 h, 3.0 μg of test plasmid and 0.2 μg of pCMV-SPORT β-gal (Life Technologies, Inc.) were transfected by lipofection (Felgner, J. H. et al. (1994) J. Biol. Chem., 269, 2550-2561) using DMRIE-C™ (Life Technologies, Inc.). After 24 h, the medium of each dish was replaced with fresh medium containing stimulants and incubated further for 24 h. Cells were harvested in 1 ml of ice-cold phosphate-buffered saline (PBS), washed twice with PBS, and extracts were prepared in extraction buffer (0.1 M potassium phosphate, pH 6.8, 1 mM DTT). The protein concentration was determined using a Coomassie reagent kit (Pierce) and bovine serum albumin as a standard. Luciferase activity was determined by a chemiluminescence substrate using a Pica Gene™ Luminescence Kit (Toyo Ink Mfg. Co, Ltd., Tokyo, Japan). β-galactosidase activity was determined using Aurora™ GAL-XE (ICN).

[3] = nicotinamide added to IL-6/dexamethasone

NC(=O)c1cccnc1 [nicotinamide]
transcriptional activity of HGF gene (luciferase), nicotinamide added to IL-6/dexamethasone [1]: further enhanced this transcriptional induction | HGF gene expression (RT-PCR), PARP inhibitor added to IL-6/dexamethasone (HGF gene): further enhanced HGF gene expression | luciferase activity (result in words) ([2]; 2,303-bp Reg 5'-flanking fragment, 24 h stimulation): ineffective | enhancement of IL-6/dexamethasone-induced transcription of Reg gene, "-70" construct [2, 3]: abolished | enhancement of IL-6/dexamethasone-induced transcription of Reg gene, -2,303 to -81 deletions [2, 3]: the enhancement was observed
